The values below come from ChEMBL document CHEMBL1139548, “Cyclic ADP-ribose analogues containing the methylenebisphosphonate linkage: effect of pyrophosphate modifications on Ca2+ release activity” (J Med Chem, 2005).

This assay in a line: Effective concentration against release of [Ca2+] ions from sea urchin egg. The format is functional.

Molecule `N=c1c2ncn3c2ccn1C1OC(COP(=O)(O)CP(=O)(O)OC[C@H]2OC3[C@H](O)C2O)[C@@H](O)[C@H]1O` (single isomer, unassigned) gave an EC50 of 300 nM.

With `N=c1c2ncn3c2ncn1C1OC(COP(=O)(O)CP(=O)(O)OC[C@H]2OC3[C@H](O)C2O)[C@@H](O)[C@H]1O` (single isomer, unassigned), the EC50 came out at 856 nM.
